Results on six compounds are retold here after patent US10543157B2, “Method of treating a hair disorder with N-hydroxypyridinones” (The Procter & Gamble Company, priority 2016, dated 2020).

Series [1] deals with HIF-1α. In words: In-vitro cell based HIF-1 stabilization (ELISA). The conditions noted are these: human dermal fibroblasts, 4 hrs treatment, normalized to cytochrome c. An excerpt: (§1) Wherein R′ and R″ are independently either hydrogen or a substituted or unsubstituted hydrocarbon group having between 1 and 20 carbon atoms. Compounds of this class can be synthesized following the procedure disclosed in U.S. Pat. No. 5,675,013. In certain aspects, the 2-pyridinol-N-oxide compound is 1-hydroxy-6-(octyloxy)-2(1H)-Pyridinone. This compound can be synthesized following the procedure disclosed in U.S. Pat. No. 5,675,013. Methods In-Vitro Cell Based Method for Measuring HIF-1 Stabilization and VEGF Induction: Human dermal fibroblasts are maintained and treated in Dulbecco's Modified Eagle Medium (DMEM) supplemented with 10% fetal bovine serum (FBS) and 1% penicillin/streptomycin. For HIF and VEGF experiments, cells are plated at 10,000 cells per well in 96-well plates. After two days, cells are treated with materials of interest solubilized in DMSO. DMSO concentration in media never exceeded 0.5%. Treatment times are 4 hrs for HIF-1a and 24 hrs for VEGF. Analytes are assayed via ELISA. After 4 hrs treatment, cells are fixed and assayed for HIF-1a using the Human/Mouse Total HIF-1a Immunoassay (R&D Systems) according to manufacturer instructions. After 24 hrs treatment, spent culture media are harvested and assayed for VEGF using the V-PLEX Human VEGF Kit (MSD) according to manufacturer instructions. HIF-1a and VEGF signals are normalized to cytochrome c signal and ATP signal, respectively, and then compared to that of untreated control. Half-maximal effective concentrations of materials are calculating using GraphPad Prism version 6 software or any other suitable software.

In series [2] the test system is VEGF. In words: In-vitro cell based VEGF induction (ELISA). The conditions noted are these: human dermal fibroblasts, 24 hrs treatment, spent media, normalized to ATP.
From the text: as §1

The subject of series [3] is scalp hair (target area hair count). In words: Clinical study #1, split-scalp, total hair count. The conditions noted are these: for Total Hair Count Change from Baseline Mean +/− SE / Total Hair Count Difference of CFBs (active minus vehicle) Mean +/− SE: topical twice a day, test compound 1%, minoxidil 2% (Rogaine for Women). The class given is in vivo, human. Here is the method:
(§2) Two randomized, double-blind, vehicle-controlled split-scalp studies are conducted as follows:
Two weeks prior to the Baseline visit, subjects are randomized into one of the 2 treatment groups appearing in the table below.
(§3) Subjects have the imaging sites located and tattoos placed within the imaging sites to mark the area that will be used for image capture. Three days post-tattoo placement, subjects will begin the pretreatment phase during which they applied their pretreatment products on the designated side of their scalp (left/right) for 11 days as a way of training subjects on the tonic application procedures. After the pretreatment phase has been completed, qualified subjects begin the 16-week treatment phase. Within each treatment group, left/right product assignments are randomized (tonic product and vehicle). In the first study subjects applied the assigned tonic product to the designated side of the scalp twice a day. The morning before each site visit, subjects wash and dry their hair and refrain from applying their test products and any styling aides until after their study visit has been completed. Subjects are instructed to wash hair at least every other day with a standard 2-in-1 shampoo during the entire washout and treatment phases. In the second study, after the pretreatment phase has been completed, subjects had their hair washed using the standard shampoo (½ head washing procedure) by a trained operator and blown dry by themselves. After washing hair (no treatment products and no styling products after washing), the two 1.8×1.8 cm imaging sites on the midfrontal/parietal scalp are clipped for hair count analysis as described below. Site staff then apply the two treatment products to the assigned sites (3×3 cm) on the scalp. Subjects return to the study site later in the day and site staff apply the 2nd application of treatment products for that day (i.e. twice a day tonic application) to each site. The following day, the subjects return to the test site and have their hair washed using the standard shampoo (½ head washing procedure) by site staff and blown dry themselves. Images of the two sites are captured for anagen hair count.
(§4) An efficacy end point of these studies is the change from baseline in target area hair count (hairs/cm2) at week 8 and/or 16, as applicable. Initial hair count and growth phase assessments are performed at baseline and at weeks 8 and 16, as applicable, in a designated target area of the scalp identified by the mini tattoo applied at baseline. The assessments are performed using a 1.8-cm2 square template centered over the mini tattoo. Hair within the template is clipped to approximately 1 mm in length. Photographic imaging equipment is supplied by Canfield Scientific Inc (Fairfield, N.J.) and is used to take macrophotographs of the shaved target area. The equipment comprises a Nikon D-SLR camera body (Nikon Corporation, Tokyo, Japan), Nikkor 60 MM F2.8 lens (Nikon Corporation), and a Canfield Epiflash (Canfield Scientific Inc, Fairfield, N.J.) with a glass contact plate and is preset and locked for magnification, f-stop, and exposure control. The analysis of the hair count photographs is performed by Canfield's core imaging laboratory. (ref: Harness J A, Kohut B, Garner J, Canfield W, Canfield D, Bertolino A. Evaluation of hair count and thickness measurements in male and female pattern hair loss using a computer-assisted technique. Poster presented at: European Hair Research Society; Zurich, Switzerland, Jul. 7-9, 2005.) The same 1 cm^2 area is mapped among the baseline, week 8, and week 16 images using the dot tattoo as a reference. Each image is then assigned a definite tracking number and randomized before analysis. The compliant and validated Canfield Hair Metrix (Canfield Scientific Inc, Fairfield, N.J.) image analysis application measures the total number of hair fibers and number of telogen and anagen hair. […]

The test system is the same in series [4]. The series can be described thus: Clinical study #2, split-scalp, total hair count. Conditions: topical twice a day. The class given is in vivo, human. The protocol: as §2, §3
[…] study site in the morning and had their hair washed by site staff (½ head washing procedure) and blown dry by themselves in the morning before the 1st application of treatment products of the day. Site staff then apply the two treatment products to the assigned sites (3×3 cm) on the scalp. Subjects return to the study site later in the day and site staff apply the 2nd application of the treatment products for that day (i.e. twice a day tonic application) to each site.
An efficacy end point of these studies is the change from baseline in target area hair count (hairs/cm2) at week 8 and/or 16, as applicable. […]

In series [5] the test system is anagen (growing) hairs of scalp. In words: Clinical study #2, anagen hair count. The class given is in vivo, human. Conditions: for ANAGEN Hair counts Change from Baseline Mean +/− SE / ANAGEN Hair counts Difference of CFBs Mean +/− SE: time not given in table (text: week 8).
From the text: as §3
(§5) The following day and for every day during the 8-week treatment phase subjects returned to the study site in the morning and had their hair washed by site staff (½ head washing procedure) and blown dry by themselves in the morning before the 1st application of treatment products of the day. Site staff then apply the two treatment products to the assigned sites (3×3 cm) on the scalp. Subjects return to the study site later in the day and site staff apply the 2nd application of the treatment products for that day (i.e. twice a day tonic application) to each site.
An efficacy end point of these studies is the change from baseline in target area hair count (hairs/cm2) at week 8 and/or 16, as applicable. Initial hair count and growth phase assessments are performed at baseline and at weeks 8 and 16, as applicable, in a designated target area of the scalp identified by the mini tattoo applied at baseline. The assessments are performed using a 1.8-cm2 square template centered over the mini tattoo. Hair within the template is clipped to approximately 1 mm in length. Photographic imaging equipment is supplied by Canfield Scientific Inc (Fairfield, N.J.) and is used to take macrophotographs of the shaved target area. The equipment comprises a Nikon D-SLR camera body (Nikon Corporation, Tokyo, Japan), Nikkor 60 MM F2.8 lens (Nikon Corporation), and a Canfield Epiflash (Canfield Scientific Inc, Fairfield, N.J.) with a glass contact plate and is preset and locked for magnification, f-stop, and exposure control. […]

Series [6] deals with telogen (resting) hairs of scalp. The series can be described thus: Clinical study #2, telogen hair count. Conditions: for TELOGEN Hair counts Change from Baseline Mean +/− SE / TELOGEN Hair counts Difference of CFBs Mean +/− SE: time not given in table (text: week 8). The class given is in vivo, human.
From the text: as §3, §5
as §4, with “reference.” for “reference. Each image is then assigned a definite tracking number and randomized before analysis. The compliant and validated Canfield Hair Metrix (Canfield Scientific Inc, Fairfield, N.J.) image analysis application measures the total number of hair fibers and number of telogen and anagen hair.”

Where [7] appears, read: Study #2, 16 weeks (so in the source).
Setting [8] is: versus vehicle (minoxidil: versus baseline and vehicle), week 8.

Where a name gives a salt, the structure may show the parent alone.

Consider `Cc1cc(CC(C)CC(C)(C)C)n(O)c(=O)c1` (stereo not shown) [1-Hydroxy-4-methyl-6-(2,4,4-trimethylpentyl)pyridin-2(1H)-one ethanolammonium salt], for which the values for the EC50 in series [1] and in series [2] were 0.4 µM and 2.1 µM, respectively.

As for `CCOC(=O)c1ccnc(C(=O)OCC)c1` [2,4-DPD, 2,4-pyridinedicarboxylic acid, diethyl ester, reference compound], the midpoint of the response in series [1] (Fibroblast), the EC50, lay at 406 µM. Besides, the “EC50 VEGF Induction” value in series [2] is given as “no response”.

As for `Cc1cc(C2CCCCC2)n(O)c(=O)c1` [6-cyclohexyl-1-hydroxy-4-methyl-2(1H)-pyridinone], the EC50 is 3.9 µM in series [1] (Fibroblast) and 2.5 µM in series [2] (Fibroblast).

Take `Nc1cc(N2CCCCC2)nc(N)[n+]1[O-]` [Minoxidil, reference compound]: in series [3] (Study #1, 8 weeks), the “Total Hair Count Change from Baseline Mean +/− SE” value is reported as 14.3 +/− 2.98 hairs/cm^2 and the “Total Hair Count Difference of CFBs (active minus vehicle) Mean +/− SE” value is recorded as 11.29 +/− 3.02 hairs/cm^2. Besides, in series [3] (Study #1, 16 weeks), the “Total Hair Count Change from Baseline Mean +/− SE” value was 14.83 +/− 3.53 hairs/cm^2 and the “Total Hair Count Difference of CFBs (active minus vehicle) Mean +/− SE” value was 13.45 +/− 3.47 hairs/cm^2. Also, in series [4] (setting [7]), the “Total Hair Count Change from Baseline Mean +/− SE” value is given as 12.93 +/− 1.77 hairs/cm^2 and the “Total Hair Count Difference of CFBs (active minus vehicle) Mean +/− SE” value is given as 5.76 +/− 2.1 hairs/cm^2. In addition, in series [5], the “ANAGEN Hair counts Change from Baseline Mean +/− SE” value was 8.66 +/− 1.75 hairs/cm^2 and the “ANAGEN Hair counts Difference of CFBs Mean +/− SE” value is recorded as 7.79 +/− 1.87 hairs/cm^2. For the same compound, in series [6], the “TELOGEN Hair counts Change from Baseline Mean +/− SE” value is given as −4.07 +/− 1.71 hairs/cm^2 and the “TELOGEN Hair counts Difference of CFBs Mean +/− SE” value is on record as −7.45 +/− 1.85 hairs/cm^2.

In the case of `CCCCCCCCOc1cccc(=O)n1O` [N-Hydroxy-6-octyloxypyridine-2(1H)one, ethanolamine salt], the 50% effective concentration (EC50) in series [2] is 13 µM.

Regarding `CCCCCCCCOc1cccc(=O)n1O` [N-Hydroxy-6-octyloxypyridine-2(1H)one], the EC50 in series [1] (Fibroblast) was determined as 17 µM. For the same compound, in series [2] (Fibroblast), the EC50 was 30 µM. In series [3] (Study #1, 8 weeks), the “Total Hair Count Change from Baseline Mean +/− SE” value is 6.15 +/− 1.91 hairs/cm^2 and the “Total Hair Count Difference of CFBs (active minus vehicle) Mean +/− SE” value is on record as 3.94 +/− 1.71 hairs/cm^2. In series [3] (Study #1, 16 weeks), the “Total Hair Count Change from Baseline Mean +/− SE” value is listed as 3.11 +/− 1.79 hairs/cm^2 and the “Total Hair Count Difference of CFBs (active minus vehicle) Mean +/− SE” value is recorded as 3.27 +/− 1.73 hairs/cm^2. For the same compound, the “hair count response as share of the minoxidil response, on average” value in series [3] (Study #1, average of week 8 and 16) is given as 29%. Besides, in series [3] (Study #1, week 8 & 16 (p=0.019 and p=0.045)), the “hair count from baseline and above vehicle treatment (in words)” value is reported as “significant increase in hair count”. In series [4] (Study #2, 8 weeks, 0.9%), the “Total Hair Count Change from Baseline Mean +/− SE” value is 10.13 +/− 1.15 hairs/cm^2 and the “Total Hair Count Difference of CFBs (active minus vehicle) Mean +/− SE” value is 3.35 +/− 1.37 hairs/cm^2. For the same compound, in series [5], the “ANAGEN Hair counts Change from Baseline Mean +/− SE” value was 3.82 +/− 1.14 hairs/cm^2 and the “ANAGEN Hair counts Difference of CFBs Mean +/− SE” value is listed as 3.18 +/− 1.22 hairs/cm^2. Also, the “number of anagen (growing) hairs (in words)” value in series [5] (setting [8]) was “significant increase in growing hairs”. In series [6] (conclusion drawn from telogen counts), the “telogen effluvium (shedding)” value is given as “will not cause telogen effluvium”. Further, in series [6], the “TELOGEN Hair counts Change from Baseline Mean +/− SE” value is on record as 2.96 +/− 1.11 hairs/cm^2 and the “TELOGEN Hair counts Difference of CFBs Mean +/− SE” value is on record as 0.51 +/− 1.21 hairs/cm^2. Also, in series [6] (setting [8]), the “number of telogen (resting) hairs (in words)” value is listed as “little or no effect”.
